The source of these data is patent publication US11780845B2 (Relay Therapeutics, Inc., priority 2019, dated 2023).

FGFR2, sequence (P21802 22-821): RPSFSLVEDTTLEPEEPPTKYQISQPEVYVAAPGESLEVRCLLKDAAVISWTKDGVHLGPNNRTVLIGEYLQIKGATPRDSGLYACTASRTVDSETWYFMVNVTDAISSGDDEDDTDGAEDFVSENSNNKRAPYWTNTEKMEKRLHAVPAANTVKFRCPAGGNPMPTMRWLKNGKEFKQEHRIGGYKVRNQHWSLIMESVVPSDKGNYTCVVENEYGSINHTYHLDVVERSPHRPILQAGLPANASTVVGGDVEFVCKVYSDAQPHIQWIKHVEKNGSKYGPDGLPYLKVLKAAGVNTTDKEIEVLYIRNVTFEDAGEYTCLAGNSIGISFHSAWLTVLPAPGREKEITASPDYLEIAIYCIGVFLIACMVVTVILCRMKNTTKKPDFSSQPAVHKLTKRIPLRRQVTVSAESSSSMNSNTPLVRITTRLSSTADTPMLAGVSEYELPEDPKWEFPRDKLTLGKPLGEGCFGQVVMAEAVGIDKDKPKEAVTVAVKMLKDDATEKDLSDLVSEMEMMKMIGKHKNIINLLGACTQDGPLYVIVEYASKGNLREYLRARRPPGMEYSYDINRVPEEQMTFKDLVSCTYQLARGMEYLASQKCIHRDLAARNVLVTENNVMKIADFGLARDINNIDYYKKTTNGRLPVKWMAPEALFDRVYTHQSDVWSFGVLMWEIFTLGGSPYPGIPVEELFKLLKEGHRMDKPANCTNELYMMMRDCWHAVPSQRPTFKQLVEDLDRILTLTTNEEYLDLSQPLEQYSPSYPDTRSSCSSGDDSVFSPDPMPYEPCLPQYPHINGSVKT

The target of the test is FGFR2 (Homo sapiens (Human), UniProt P21802). As to the kind of experiment: FGFR2 Biochemical Caliper Assay. The procedure:
Compounds of the present invention were also tested in a FGFR2 Biochemical Caliper Assay. Compounds were prepared in 10 mM DMSO solution and serially diluted into 11 concentrations by 3-fold dilution. […] 5 uL of ATP solution (100 uM) was added to start the reaction and the plate was incubated for 90 minutes, then 70 uL of stopping buffer (0.5M EDTA) was added to terminate the reaction. Each well was analyzed using EZ reader.
The term IC50 denotes the concentration that gives 50% inhibition. High values mean a need for much substance, low ones inhibition by little substance. The compound `C=C(C)C(=O)Nc1ccc(-c2c(C3=CC[C@@H](C(=O)NCC(C)(C)OC)CC3)c3c(N)ncnc3n2C)cc1` (single isomer, unassigned) [Example 431] registered an IC50 of 250 to 1000 nM.
Under `C=C(C)C(=O)Nc1ccc(-c2c(C3=CC[C@H](C(=O)NCC(C)(C)OC)CC3)c3c(N)ncnc3n2C)cc1` (single isomer, unassigned) [Example 432] stands 1000 to 100000 nM; under `C=C(C)C(=O)Nc1ccc(-c2c(-c3ccc(C(=O)N(C)C[C@H]4CCOC4)cc3)c3c(N)ncnc3n2C)cc1` (single isomer, unassigned) [Example 472], 250 to 1000 nM.
To `C=C(C)C(=O)Nc1ccc(-c2c(-c3ccc(C(=O)N(C)C[C@@H]4CCOC4)cc3)c3c(N)ncnc3n2C)cc1` (single isomer, unassigned) [Example 473] belongs 250 to 1000 nM.
Under `C=C(C)C(=O)Nc1ccc(-c2c(-c3ccc(C(=O)N4CCCC4)cc3)c3c(N)ncnc3n2C)c([C@H]2CCCO2)c1` (single isomer, unassigned) [Example 509] stands 250 to 1000 nM; under `C=C(C)C(=O)Nc1ccc(-c2c(-c3ccc(C(=O)N4CCCC4)cc3)c3c(N)ncnc3n2C)c([C@@H]2CCCO2)c1` (single isomer, unassigned) [Example 510], less than 100 nM; under `C=C(C)C(=O)Nc1ccc(-c2c(C3=CC[C@@H](Oc4ccn(C)n4)CC3)c3c(N)ncnc3n2C)cc1` (single isomer, unassigned) [Example 549], 1000 to 100000 nM.
As to `C=C(C)C(=O)Nc1ccc(-c2c(C3=CC[C@H](C(=O)N4CCC[C@H]4C#N)CC3)c3c(N)ncnc3n2C)cc1` (single isomer, unassigned) [Example 574], the IC50 lay in the range of 250 to 1000 nM.
In the case of `C=C(C)C(=O)Nc1ccc(-c2c(C3=CC[C@H](C(=O)N4CC[C@@H](CO)C4)CC3)c3c(N)ncnc3n2C)cc1` (single isomer, unassigned) [Example 575], the half-maximal inhibitory concentration (IC50) was in the range of 1000 to 100000 nM.
For `C=C(C)C(=O)Nc1ccc(-c2c(C3=CC[C@H](C(=O)N4CC[C@@H](F)C4)CC3)c3c(N)ncnc3n2C)cc1` (single isomer, unassigned) [Example 576], the IC50 lay within 1000 to 100000 nM.
Under `Cn1c(-c2ccc(NC(=O)C3=CCC3)cc2)c(C2=CC[C@H](C(=O)N3CCCC3)CC2)c2c(N)ncnc21` (single isomer, unassigned) [Example 579] stands 250 to 1000 nM; under `C=C(C)C(=O)Nc1ccc(-c2c(C3=CC[C@H](C(=O)N4CC[C@@H](OC)C4)CC3)c3c(N)ncnc3n2C)cc1` (single isomer, unassigned) [Example 580], 1000 to 100000 nM.
To `C=C(C)C(=O)Nc1ccc(-c2c(C3=CC[C@@H](C(=O)N4CC[C@@H](CO)C4)CC3)c3c(N)ncnc3n2C)cc1` (single isomer, unassigned) [Example 583] belongs 250 to 1000 nM.
Under `Cn1c(-c2ccc(NC(=O)[C@H]3CO3)cc2)c(-c2ccc(C(=O)N3CCCC3)cc2)c2c(N)ncnc21` (single isomer, unassigned) [Example 585] stands 100 to 250 nM.
Consider `C=C(C)C(=O)Nc1ccc(-c2c(C3=CC[C@@H](C(=O)N4CC[C@@H](F)C4)CC3)c3c(N)ncnc3n2C)cc1` (single isomer, unassigned) [Example 591], for which the half-inhibitory concentration (IC50) is 100 to 250 nM.
Under `C=C(C)C(=O)Nc1ccc(-c2c(C3=CC[C@@H](C(=O)N4CC[C@@H](OC)C4)CC3)c3c(N)ncnc3n2C)cc1` (single isomer, unassigned) [Example 593] stands 250 to 1000 nM; under `C=CCC(=O)Nc1ccc(-c2c(-c3ccc(Oc4cccc(C)n4)c(OC)c3)c3c(N)ncnc3n2C)cc1` [Example 2], 250 to 1000 nM.
Under `C=CC(=O)N1CCCc2cc(-c3c(-c4ccc(Oc5cccc(C)n5)c(OC)c4)c4c(N)ncnc4n3C)ccc21` [Example 3] stands less than 100 nM.
Under `C=CC(=O)N(C)c1ccc(-c2c(-c3ccc(Oc4cccc(C)n4)c(OC)c3)c3c(N)ncnc3n2C)cc1` [Example 6] stands 100 to 250 nM; under `C=CC(=O)Nc1cccc(-c2c(-c3ccc(Oc4cccc(C)n4)c(OC)c3)c3c(N)ncnc3n2C)c1` [Example 7], less than 100 nM; under `C=CC(=O)N1Cc2ccc(-c3c(-c4ccc(Oc5cccc(C)n5)c(OC)c4)c4c(N)ncnc4n3C)cc2C1` [Example 8], less than 100 nM.
Turning to `C=CC(=O)N(C)c1ccc(-c2c(-c3ccc(Oc4cccc(C)n4)cc3)c3c(N)ncnc3n2C)cc1` [Example 9], the 50% inhibitory concentration (IC50) is less than 100 nM.
In turn, `C=CC(=O)N1CCc2cc(-c3c(-c4ccc(Oc5cccc(C)n5)c(OC)c4)c4c(N)ncnc4n3C)ccc21` [Example 10] yielded an IC50 of less than 100 nM.
To `C=CC(=O)Nc1ccc(-c2c(-c3ccc(Oc4cccc(C)n4)c(C)c3)c3c(N)ncnc3n2C)cc1` [Example 19] belongs less than 100 nM; to `C=CC(=O)N1CCc2cc(-c3c(-c4ccc(Oc5cccc(C)n5)cc4)c4c(N)ncnc4n3C)ccc2C1` [Example 20], 100 to 250 nM.
Under `C=CC(=O)Nc1ccc(-c2c(-c3ccc(Oc4cccc(C)n4)cc3)c3c(N)ncnc3n2C)cc1C` [Example 21] stands less than 100 nM; under `C=CC(=O)Nc1cccc(-c2c(-c3ccc(Oc4cccc(C)n4)cc3)c3c(N)ncnc3n2C)c1` [Example 22], less than 100 nM; under `C=C(C)C(=O)Nc1ccc(-c2c(-c3ccc(Oc4ccccc4)cc3)c3c(N)ncnc3n2C)cc1` [Example 23], 250 to 1000 nM.
Compound `C=CC(=O)Nc1ccc(-c2c(-c3cccc(OC)c3)c3c(N)ncnc3n2C)cc1` [Example 25] registered an IC50 of less than 100 nM.
To `C=CC(=O)Nc1ccc(-c2c(-c3ccc(Oc4cccc(C)c4)cc3)c3c(N)ncnc3n2C)cc1` [Example 28] belongs less than 100 nM; to `C=C(C)C(=O)Nc1ccc(-c2c(-c3ccc(Oc4cccc(C)c4)cc3)c3c(N)ncnc3n2C)cc1` [Example 29], 250 to 1000 nM; to `C=C(C)C(=O)Nc1ccc(-c2c(-c3ccc(Oc4ccccc4)c(OC)c3)c3c(N)ncnc3n2C)cc1` [Example 30], 250 to 1000 nM.
The compound `C=C(C)C(=O)Nc1ccc(-c2c(-c3ccc(Oc4cccc(C)c4)c(OC)c3)c3c(N)ncnc3n2C)cc1` [Example 33] registered an IC50 of 250 to 1000 nM.
To `C=CC(=O)Nc1ccc(-c2c(-c3ccc(Oc4cc(C)ccn4)c(OC)c3)c3c(N)ncnc3n2C)cc1` [Example 34] belongs less than 100 nM; to `C=CC(=O)Nc1ccc(-c2c(Br)c3c(N)ncnc3n2C)cc1` [Example 37], less than 100 nM; to `C=CC(=O)Nc1ccc(-c2c(-c3ccc(Oc4ccncc4)c(OC)c3)c3c(N)ncnc3n2C)cc1` [Example 39], 100 to 250 nM.
To `C=CC(=O)Nc1ccc(-c2c(-c3ccc(Oc4ccc(C)cn4)c(OC)c3)c3c(N)ncnc3n2C)cc1` [Example 40] belongs less than 100 nM; to `C=CC(=O)Nc1ccc(-c2c(-c3ccc(Oc4cncc(C)c4)c(OC)c3)c3c(N)ncnc3n2C)cc1` [Example 41], less than 100 nM.
`C=CC(=O)Nc1ccc(-c2c(-c3ccc(Oc4ncccc4C)c(OC)c3)c3c(N)ncnc3n2C)cc1` [Example 42] showed an IC50 of less than 100 nM.
Under `CCC(=O)Nc1ccc(-c2c(-c3ccc(Oc4ncccn4)c(OC)c3)c3c(N)ncnc3n2C)cc1` [Example 43] stands 1000 to 100000 nM; under `C=CC(=O)Nc1ccc(-c2c(-c3ccc(Oc4ccc(C)nc4)c(OC)c3)c3c(N)ncnc3n2C)cc1` [Example 44], less than 100 nM; under `C=CC(=O)Nc1ccc(-c2c(-c3ccc(OC)c(OC)c3)c3c(N)ncnc3n2C)cc1` [Example 46], less than 100 nM.
On to `C=C(C)C(=O)Nc1ccc(-c2c(-c3ccc(Oc4ncccn4)cc3)c3c(N)ncnc3n2C)cc1` [Example 52], for which the IC50 was less than 100 nM.
With `C=C(C)C(=O)Nc1ccc(-c2c(-c3cccc(OC)c3)c3c(N)ncnc3n2C)cc1` [Example 55], the IC50 was 250 to 1000 nM.
To `C=CC(=O)Nc1ccc(-c2c(-c3ccc(Nc4ncccn4)c(OC)c3)c3c(N)ncnc3n2C)cc1` [Example 56] belongs less than 100 nM.
To `C=CC(=O)Nc1ccc(-c2c(-c3ccc(N(C)c4ncccn4)c(OC)c3)c3c(N)ncnc3n2C)cc1` [Example 57] belongs 100 to 250 nM; to `C=CC(=O)Nc1ccc(-c2c(-c3ccc(Nc4ncccn4)cc3)c3c(N)ncnc3n2C)cc1` [Example 58], less than 100 nM; to `C=C(C)C(=O)Nc1ccc(-c2c(-c3ccc(Nc4ncccn4)cc3)c3c(N)ncnc3n2C)cc1` [Example 59], 100 to 250 nM.
The compound `C=CC(=O)Nc1ccc(-c2c(-c3ccc(N(C)c4ncccn4)cc3)c3c(N)ncnc3n2C)cc1` [Example 61] had an IC50 of less than 100 nM.
`C=C(C)C(=O)Nc1ccc(-c2c(-c3ccc(N(C)c4ncccn4)cc3)c3c(N)ncnc3n2C)cc1` [Example 62]: the IC50 is 1000 to 100000 nM.
As to `CCC(=O)Nc1ccc(-c2c(-c3ccc(Oc4ncccn4)cc3)c3c(N)ncnc3n2C)cc1` [Example 63], the IC50 lay within 1000 to 100000 nM.
To `C=C(C)C(=O)Nc1ccc(-c2c(-c3ccc(Oc4ncc(CO)cn4)cc3)c3c(N)ncnc3n2C)cc1` [Example 64] belongs 1000 to 100000 nM; to `C=C(C)C(=O)Nc1ccc(-c2c(-c3ccc(Oc4ncc(CO)cn4)c(OC)c3)c3c(N)ncnc3n2C)cc1` [Example 65], 1000 to 100000 nM.
To `CCC(=O)Nc1ccc(-c2c(-c3ccc(Oc4cccc(C)n4)c(OC)c3)c3c(N)ncnc3n2C)cc1` [Example 66] belongs 1000 to 100000 nM; to `CCC(=O)Nc1ccc(-c2c(-c3ccc(Oc4ccccn4)c(OC)c3)c3c(N)ncnc3n2C)cc1` [Example 67], 1000 to 100000 nM.
Regarding `C=CC(=O)Nc1ccc(-c2c(-c3ccc(Sc4ncccn4)cc3)c3c(N)ncnc3n2C)cc1` [Example 68], the IC50 is less than 100 nM.
To `C=CC(=O)Nc1ccc(-c2c(-c3ccc(Oc4ncccn4)c(CO)c3)c3c(N)ncnc3n2C)cc1` [Example 71] belongs 250 to 1000 nM; to `C/C=C/C(=O)Nc1ccc(-c2c(-c3cccc(OC)c3)c3c(N)ncnc3n2C)cc1` [Example 72], 250 to 1000 nM.
To `CC#CC(=O)Nc1ccc(-c2c(-c3cccc(OC)c3)c3c(N)ncnc3n2C)cc1` [Example 73] belongs 100 to 250 nM.
